US20230285364A1, “USE OF A DHODH INHIBITOR COMPOUND IN COMBINATION CANCER THERAPY” (Servier Pharmaceuticals LLC, priority 2020, published 2023)
Like-named read-outs stand apart in the source and are kept apart here.

What was measured:
[1] = cited from earlier work
[2] = system: OCILY19 xenograft model of DLBCL; format: in vivo
Experimental: 5 × 10^6 OCILY cells were implanted subcutaneously into 5-6 week-old female CB17 SCID mice in serum free media with Matrigel 1:1. Tumor volume and body weights were monitored twice a week until the tumors reached ~ 150 mm^3. […] At the end of study, tumor, plasma, and liver tissues were collected at the indicated timepoints post-last dose for PK and biomarker analyses. […] Venetoclax was formulated with 60% Phosal 50, 30% PEG 400, and 10% ethanol and stored at 4° C.

[3] = system: MOLM13 xenograft model of AML; format: in vivo
Experimental: 5 × 10^6 MOLM13 cells were implanted subcutaneously into 5-6 week-old female CB17 SCID mice in serum free media with Matrigel 1:1. Tumor volume and body weights were monitored twice a week until the tumors reached ~ 150 mm^3. […] At the end of study, tumor, plasma, and liver tissues were collected at the indicated timepoints post-last dose for PK and biomarker analyses. […] Venetoclax was formulated with 60% Phosal 50, 30% PEG 400, and 10% ethanol and stored at 4° C.

Nc1ncn([C@H]2C[C@H](O)[C@@H](CO)O2)c(=O)n1 [Decitabine, 4-amino-1-(2-deoxy-β-D-erythro-pentofuranosyl)-1,3,5-triazin-2(1H)one]
solubility ([1]; dimethylsulfoxide (DMSO)): soluble | solubility ([1]; ethanol/water (50/50), methanol/water (50/50) and methanol): slightly soluble | solubility ([1]; water): sparingly soluble

Nc1ncn([C@@H]2O[C@H](CO)[C@@H](O)[C@H]2O)c(=O)n1 [Azacitidine, 4-amino-1-β-D-ribofuranozyl-s-triazin-2(1H)-one]
solubility ([1]; acetone, ethanol and methyl ketone): insoluble | solubility ([1]; dimethylsulfoxide (DMSO)): soluble | solubility ([1]; ethanol/water (50/50), propylene glycol and polyethylene glycol): slightly soluble | solubility ([1]; water, water-saturated octanol, 5% dextrose in water, N-methyl-2-pyrrolidone, normal saline and 5% Tween 80 in water): sparingly soluble

Cc1ccccc1-c1ccc(-c2cc(C(=O)O)c3c(c2)nnn3C)cc1 [Compound 1, 1-methyl-5-(2′-methyl-[1,1′-biphenyl]-yl)-1H-benzo[d][1,2,3]triazole-7-carboxylic acid]
Tumor Growth Inhibition ([2]; Compound 1 30 mg/kg BID alone): 56% | Tumor Growth Inhibition ([3]; Compound 1 30 mg/kg alone): 24%

4-(4-{ [2-(4-chlorophenyl)-4,4- dimethylcyclohex-1-en-1-yl]methyl}piperazin-1-yl)-N-({3-nitro-4-[(tetrahydro-2H-pyran-4-ylmethyl)amino]phenyl}sulfonyl)-2-(1H-pyrrolo[2,3-b]pyridin-5-yloxy)benzamide) [Venetoclax]
Tumor Growth Inhibition ([2]; Venetoclax 1 mg/kg alone): 3.6% | effect on tumor growth ([2]; venetoclax alone at the 1 m/kg dose): no effect | Tumor Growth Inhibition ([3]; Venetoclax 30 mg/kg alone): 27%
